These results are taken from EP0855398B1, “SESQUITERPENE DERIVATIVES HAVING ANTIVIRAL ACTIVITY” (SHIONOGI & CO., LTD., priority 1995, dated 1997).

Data set [1] has as its system Influenza virus A/WSN/33 (H1N1). Briefly: microbe, parasite or virus in culture. The format is cell-based. As to conditions: 72 h.
Data set [2] in a line: in vitro. Conditions: bovine.
Setting [3] is: viral strain: Influenza virus A/WSN/33 (H1N1), Cell: MDBK, […], 3 days, read-out: IC50.

≈ marks a conversion by molar mass, not a printed value. Read-outs that look alike come from different tables or passages of the source. Where only a bound is given, the exact number is not on record here.

On to `C[C@H]1CC[C@H]2C(C)(C)[C@@H](NS(C)(=O)=O)CC[C@]23Oc2c(c(O)cc4c2CNC4=O)C[C@]13C` [Compound (47c), (6aR, 7S, 9aS, 11S, 13aS)-2,3,6,6a, 7,8,9,9a, 10, 11, 12, 13-dodecahydro-5-hydroxy-6a, 7, 10, 10-tetramethyl-11-methanesulfonylamino-3-oxo-1H-benzo[8,8a][1]benzopyrano[2,3-e]isoindole], for which, in data set [1] (setting [3]), the IC50 (in general, the concentration that gives 50% inhibition) is 0.01 µg/mL (≈ 0.0216 µM). This molecule also showed a CC50 in data set [2] of more than 10 µg/mL.

Take `C[C@H]1CC[C@H]2C(C)(C)[C@@H](NS(=O)(=O)c3ccccc3)CC[C@]23Oc2c(c(O)cc4c2CNC4=O)C[C@]13C` [Compound (47d), (6aR, 7S, 9aS, 11S, 13aS)-2,3,6,6a, 7,8,9,9a, 10, 11, 12, 13-dodecahydro-5-hydroxy-6a, 7, 10, 10-tetramethyl-11-phenylsulfonylamino-3-oxo-1H-benzo[8,8a][1]benzopyrano[2,3-e]isoindole]: the IC50 in data set [1] (setting [3]) came to 0.003 µg/mL (≈ 0.00572 µM). For the same molecule, the CC50 in data set [2] fell in the range of 5 to 10 µg/mL (≈ 9.53 to 19.1 µM).

For `C[C@H]1CC[C@H]2C(C)(C)[C@@H](NC(=O)Nc3ccccc3)CC[C@]23Oc2c(c(O)cc4c2CNC4=O)C[C@]13C` [Compound (47e), (6aR, 7S, 9aS, 11S, 13aS)-2,3,6,6a, 7,8,9,9a, 10, 11, 12, 13-dodecahydro-5-hydroxy-6a, 7, 10, 10-tetramethyl-11-(3-phenylureido)-3-oxo-1H-benzo[8,8a][1]benzopyrano[2,3-e]isoindole], in data set [1] (setting [3]), the IC50 was determined as 0.025 µg/mL (≈ 0.0496 µM). This molecule yielded a CC50 in data set [2] of more than 10 µg/mL.

As for `C[C@H]1CC[C@H]2C(C)(C)[C@@H](O)[C@@H](O)C[C@]23Oc2c(c(O)cc4c2CNC4=O)C[C@]13C` [Compound (50a), (6a R, 7 S, 9a S, 11 R, 12 S, 13a S)-2,3,6,6a, 7,8,9,9a, 10, 11, 12, 13-dodecahydro-5,11,12-trihydroxy-6a, 7, 10, 10-tetramethyl-3-oxo-1H-benzo[8,8a][1]benzopyrano[2,3-e]isoindole], the IC50 in data set [1] (setting [3]) came out at 0.004 µg/mL (≈ 0.00996 µM). The molecule also displayed a CC50 in data set [2] of more than 40 µg/mL.

With `CC(=O)O[C@H]1C[C@@]23Oc4c(c(O)cc5c4CNC5=O)C[C@]2(C)[C@@H](C)CC[C@H]3C(C)(C)[C@H]1O` [Compound (50b), (6a R, 7 S, 9a S, 11 R, 12 S, 13a S)-12-acetoxy-2,3,6,6a,7,8,9,9a, 10, 11, 12, 13-dodecahydro-5,11-dihydroxy-6a, 7, 10, 10-tetramethyl-3-oxo-1H-benzo[8,8a][1]benzopyrano[2,3-e]isoindole], in data set [1] (setting [3]), the IC50 came to 0.01 µg/mL (≈ 0.0225 µM). In data set [2], the CC50 is more than 10 µg/mL.

With `C[C@H]1CC[C@H]2C(C)(C)[C@@H](O)[C@@H](OC(=O)c3ccccc3)C[C@]23Oc2c(c(O)cc4c2CNC4=O)C[C@]13C` [Compound (50c), (6a R, 7 S, 9a S, 11 R, 12 S, 13a S)-12-benzoyloxy-2,3,6,6a, 7,8,9,9a, 10, 11, 12, 13-dodecahydro-5,11-dihydroxy-6a, 7, 10, 10-tetramethyl-3-oxo-1H-benzo[8,8a][1]benzopyrano[2,3-e]isoindole], in data set [1] (setting [3]), the IC50 worked out at 0.05 µg/mL (≈ 0.0989 µM). In data set [2], this molecule came in with a CC50 of 5 to 10 µg/mL (≈ 9.89 to 19.8 µM).

As to `C[C@H]1CC[C@H]2C(C)(C)[C@@H](O)[C@@H](OS(C)(=O)=O)C[C@]23Oc2c(c(O)cc4c2CNC4=O)C[C@]13C` [Compound (50d), (6a R, 7 S, 9a S, 11 R, 12 S, 13a S)-2,3,6,6a, 7,8,9,9a, 10, 11,12,13-dodecahydro-5,11-dihydroxy-6a, 7,10, 10-tetramethyl-12-methanesulfonyloxy-3-oxo-1H-benzo[8,8a][1]benzopyrano[2,3-e]isoindole], the IC50 in data set [1] (setting [3]) stood at 0.0016 µg/mL (≈ 0.00334 µM). Besides, in data set [2], the CC50 was more than 10 µg/mL.

Regarding `C[C@H]1CC[C@H]2C(C)(C)[C@@H](O)[C@@H](OS(=O)(=O)c3ccccc3)C[C@]23Oc2c(c(O)cc4c2CNC4=O)C[C@]13C` [Compound (50e), (6a R, 7 S, 9a S, 11 R, 12 S, 13a S)-2,3,6,6a, 7,8,9,9a, 10, 11,12,13-dodecahydro-5,11-dihydroxy-6a, 7, 10, 10-tetramethyl-12-phenylsulfonyloxy-3-oxo-1H-benzo[8,8a][1]benzopyrano[2,3-e]isoindole], in data set [1] (setting [3]), the IC50 fell in the range of 0.0016 to 0.0032 µg/mL (≈ 0.00295 to 0.00591 µM). In data set [2], this molecule registered a CC50 of more than 10 µg/mL.

For the molecule `C[C@H]1CC[C@H]2C(C)(C)C(=NO)CC[C@]23Oc2c(c(O)cc4c2CNC4=O)C[C@]13C` [Compound (51a), (6a R, 7 S, 9a S, 13a S)-2,3,6,6a, 7,8,9,9a, 10, 11, 12, 13-dodecahydro-5-hydroxy-11-hydroxyimino-6a, 7, 10, 10-tetramethyl-3-oxo-1H-benzo[8,8a][1]benzopyrano[2,3-e]isoindole], the IC50 in data set [1] (setting [3]) was 0.0016 µg/mL (≈ 0.00402 µM). The CC50 in data set [2] was more than 10 µg/mL.

`CON=C1CC[C@@]23Oc4c(c(O)cc5c4CNC5=O)C[C@]2(C)[C@@H](C)CC[C@H]3C1(C)C` [Compound (51b), (6a R, 7 S, 9a S, 13a S)-2,3,6,6a, 7,8,9,9a, 10, 11, 12, 13-dodecahydro-5-hydroxy-11-methoxyimino-6a, 7, 10, 10-tetramethyl-3-oxo-1H-benzo[8,8a][1]benzopyrano[2,3-e]isoindole]: the IC50 in data set [1] (setting [3]) is 0.003 µg/mL (≈ 0.00727 µM). This molecule also gave a CC50 in data set [2] of 5 to 10 µg/mL (≈ 12.1 to 24.2 µM).

As to `C[C@H]1CC[C@H]2C(C)(C)C(=NNC(N)=O)CC[C@]23Oc2c(c(O)cc4c2CNC4=O)C[C@]13C` [Compound (51d), (6a R, 7 S, 9a S, 13a S)-2,3,6,6a, 7,8,9,9a, 10, 11, 12, 13-dodecahydro-5-hydroxy-6a, 7, 10, 10-tetramethyl-3-oxo-11-ureidoimino-1H-benzo[8,8a][1]benzopyrano[2,3-e]isoindole], the IC50 in data set [1] (setting [3]) is 0.005 µg/mL (≈ 0.0113 µM). In data set [2], the CC50 is more than 10 µg/mL.

Take `C[C@H]1CC[C@H]2C(C)(C)C(=NN3CCOCC3)CC[C@]23Oc2c(c(O)cc4c2CNC4=O)C[C@]13C` [Compound (51f), (6aR, 7S, 9aS, 13aS)-2,3,6,6a, 7,8,9,9a, 10, 11, 12, 13-dodecahydro-5-hydroxy-6a, 7, 10, 10-tetramethyl-11-(1-oxa-4-azacyclohex-4-yl)imino-3-oxo-1H-benzo[8,8a][1]benzopyrano[2,3-e]isoindole]: the IC50 in data set [1] (setting [3]) turned out to be 0.05 µg/mL (≈ 0.107 µM). In addition, the CC50 in data set [2] came out at 25 µg/mL (≈ 53.5 µM).

In the case of `CC(=O)O[C@@H]1C(=NO)C[C@@]23Oc4c(c(O)cc5c4CNC5=O)C[C@]2(C)[C@@H](C)CC[C@H]3C1(C)C` [Compound (53b), (6aR, 7S, 9aS, 11S, 13aS)-11-acetoxy-2,3,6,6a, 7,8,9,9a, 10, 11, 12, 13-dodecahydro-5-hydroxy-12-hydroxyimino-6a, 7, 10, 10-tetramethyl-3-oxo-1H-benzo[8,8a][1]benzopyrano[2,3-e]isoindole], the IC50 in data set [1] (setting [3]) worked out at 0.08 µg/mL (≈ 0.175 µM). This molecule also registered a CC50 in data set [2] of more than 10 µg/mL.

As for `C[C@H]1CC[C@H]2C(C)(C)[C@@H](O)CC[C@]23Oc2c(c(OP(=O)(O)O)cc4c2CNC4=O)C[C@]13C.[Na]` [Compound (59a), (6aR, 7S, 9aS, 11S, 13aS)-2,3,6,6a, 7,8,9,9a, 10, 11, 12, 13-dodecahydro-11-hydroxy-5-dihydroxyphosphinyloxy-6a, 7,10, 10-tetramethyl-3-oxo-1H-benzo[8,8a][1]benzopyrano[2,3-e]isoindole monosodium salt], inhibition in data set [1] (H1N1|WSN, MDBK) was half-maximal at 0.001 µg/mL (IC50). The CC50 in data set [2] is more than 10 µg/mL.

Molecule `C[C@H]1CC[C@H]2C(C)(C)[C@H](O)CC[C@]23Oc2c(c(OP(=O)(O)O)cc4c2CNC4=O)C[C@]13C.[Na]` [Compound (59b), (6a R, 7 S, 9a S, 11 R, 13a S)-2,3,6,6a, 7,8,9,9a, 10, 11, 12, 13-dodecahydro-11-hydroxy-5-dihydroxyphosphinyloxy-6a, 7, 10,10-tetramethyl-3-oxo-1H-benzo[8,8a][1]benzopyrano[2,3-e]isoindole monosodium salt] registered an IC50 in data set [1] (H1N1|WSN, MDBK) of 0.001 µg/mL. Besides, the CC50 in data set [2] is more than 10 µg/mL.

For `C[C@H]1CC[C@H]2C(C)(C)C(=NO)CC[C@]23Oc2c(c(OP(=O)(O)O)cc4c2CNC4=O)C[C@]13C.[Na]` [Compound (64), (6aR, 7S, 9aS, 13aS)-2,3,6,6a, 7,8,9,9a, 10, 11, 12, 13-dodecahydro-11-hydroxyimino-5-dihydroxyphosphinyloxy-6a, 7, 10, 10-tetramethyl-3-oxo 1H-benzo[8,8a][1]benzopyrano[2,3-e]isoindole monosodium salt], in data set [1] (H1N1|WSN, MDBK), the IC50 came to 0.001 µg/mL. Besides, in data set [2], the CC50 was more than 10 µg/mL.

With `C[C@@H]1NC(=O)c2cc(O)c3c(c21)O[C@@]12CC[C@H](O)C(C)(C)[C@@H]1CC[C@H](C)[C@@]2(C)C3` [Compound (67a), (1S, 6aR, 7S, 9aS, 11S, 13aS)-2,3,6,6a, 7,8,9,9a, 10, 11, 12, 13-dodecahydro-5, 11-dihydroxy-1,6a, 7, 10, 10-pentamethyl-3-oxo-1H-benzo[8,8a][1]benzopyrano[2,3-e]isoindole], the IC50 in data set [1] (setting [3]) was 0.016 µg/mL (≈ 0.04 µM). In data set [2], this molecule came in with a CC50 of 6.3 to 12.5 µg/mL (≈ 15.8 to 31.3 µM).

As for `C[C@H]1NC(=O)c2cc(O)c3c(c21)O[C@@]12CC[C@H](O)C(C)(C)[C@@H]1CC[C@H](C)[C@@]2(C)C3` [Compound (67b), (1R, 6aR, 7S, 9aS, 11S, 13aS)-2,3,6,6a, 7,8,9,9a, 10, 11, 12, 13-dodecahydro-5, 11-dihydroxy-1,6a, 7, 10, 10-pentamethyl-3-oxo-1H-benzo[8,8a][1]benzopyrano[2,3-e]isoindole], the IC50 in data set [1] (setting [3]) was 0.032 µg/mL (≈ 0.0801 µM). Further, the CC50 in data set [2] is 25 to 50 µg/mL (≈ 62.6 to 125 µM).

In the case of `C[C@H]1CC[C@H]2C(C)(C)[C@H](O)CC[C@]23Oc2c(c(O)cc4c2C(=O)NC4=O)C[C@]13C` [Compound (70), (6aR, 7S, 9aS, 11R, 13aS)-2,3,6,6a, 7,8,9,9a, 10, 11, 12, 13-dodecahydro-5, 11-dihydroxy-6a, 7, 10, 10-tetramethyl-13-dioxo-1H-benzo[8,8a][1]benzopyrano[2,3-e]isoindole], the IC50 in data set [1] (setting [3]) amounted to 0.008 µg/mL (≈ 0.02 µM). Also, the CC50 at 72 h in data set [2] (mdbk cells) lay within 12.5 to 25 µg/mL (≈ 31.3 to 62.6 µM).
